According to patent US20150272939A1, “Identification of Small Molecule Inhibitors of Jumonji AT-Rich Interactive Domain 1A (JARID1A) and 1B (JARID1B) Histone Demethylase” (Yale University, priority 2012, published 2015):
Counter-ions that a name gives are not always drawn. Like-named read-outs stand apart in the source and are kept apart here.

Columns and labels:
[1] = AlphaScreen counterscreen against bio-H3K4me2 peptide in the absence of enzyme (artifact signal); settings: for Artifact Signal (percent): effect of the compound when incubated with bio-H3K4me2 peptide (counterscreen, no enzyme); for Artifact signal: effect of the compound when it is incubated with bio-H3K4me2 peptide: counterscreen, no enzyme;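 on all read-outs here: counterscreen run without enzyme against bio-H3K4me2 peptide to remove false positive hits from the JARID1 demethylase AlphaScreen screen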
[2] = molecular target: T1, JARID1B (Homo sapiens, UniProt Q9UGL1); test: FLAG-JARID1B histone demethylase assay with AlphaScreen detection (HTS and dose response); format: biochemical; settings: for Assay − Artifact Signal (percent): assay signal minus artifact signal; for inhibition at 20 µM / Inhibitory effect (percent): high-throughput screen, compound 20 μM; for inhibition at 20 µM: read-out: Inhibitory effect (percent); for Assay Signal (percent) / Validation result of HTS active: effect of the compound in the JARID1B AlphaScreen demethylase assay: validation of HTS actives; for Assay Signal (percent): effect of compound in JARID1B AlphaScreen assay; for Validation result of HTS active: effect of the compound in the JARID1B AlphaScreen demethylase assay: total signal before subtraction of artifact signal;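 on Assay Signal (percent): compound tested at 20 µM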;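 on Assay − Artifact Signal (percent): compound tested at 20 µM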;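 on all read-outs here: FLAG-tagged JARID1B at 4 nM acting on a biotinylated H3K4me3 peptide, demethylation read by AlphaScreen luminescence, with hits checked against bio-H3K4me2 without enzyme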
T1 construct: The FLAG tagged full length JARID1B enzyme was expressed in Sf21 insect cells using FLAG-JARID1B baculoviruses; FLAG (N); made in house; host or cells: Sf21 insect cells (baculovirus)
T1 sequence (Q9UGL1 whole entry): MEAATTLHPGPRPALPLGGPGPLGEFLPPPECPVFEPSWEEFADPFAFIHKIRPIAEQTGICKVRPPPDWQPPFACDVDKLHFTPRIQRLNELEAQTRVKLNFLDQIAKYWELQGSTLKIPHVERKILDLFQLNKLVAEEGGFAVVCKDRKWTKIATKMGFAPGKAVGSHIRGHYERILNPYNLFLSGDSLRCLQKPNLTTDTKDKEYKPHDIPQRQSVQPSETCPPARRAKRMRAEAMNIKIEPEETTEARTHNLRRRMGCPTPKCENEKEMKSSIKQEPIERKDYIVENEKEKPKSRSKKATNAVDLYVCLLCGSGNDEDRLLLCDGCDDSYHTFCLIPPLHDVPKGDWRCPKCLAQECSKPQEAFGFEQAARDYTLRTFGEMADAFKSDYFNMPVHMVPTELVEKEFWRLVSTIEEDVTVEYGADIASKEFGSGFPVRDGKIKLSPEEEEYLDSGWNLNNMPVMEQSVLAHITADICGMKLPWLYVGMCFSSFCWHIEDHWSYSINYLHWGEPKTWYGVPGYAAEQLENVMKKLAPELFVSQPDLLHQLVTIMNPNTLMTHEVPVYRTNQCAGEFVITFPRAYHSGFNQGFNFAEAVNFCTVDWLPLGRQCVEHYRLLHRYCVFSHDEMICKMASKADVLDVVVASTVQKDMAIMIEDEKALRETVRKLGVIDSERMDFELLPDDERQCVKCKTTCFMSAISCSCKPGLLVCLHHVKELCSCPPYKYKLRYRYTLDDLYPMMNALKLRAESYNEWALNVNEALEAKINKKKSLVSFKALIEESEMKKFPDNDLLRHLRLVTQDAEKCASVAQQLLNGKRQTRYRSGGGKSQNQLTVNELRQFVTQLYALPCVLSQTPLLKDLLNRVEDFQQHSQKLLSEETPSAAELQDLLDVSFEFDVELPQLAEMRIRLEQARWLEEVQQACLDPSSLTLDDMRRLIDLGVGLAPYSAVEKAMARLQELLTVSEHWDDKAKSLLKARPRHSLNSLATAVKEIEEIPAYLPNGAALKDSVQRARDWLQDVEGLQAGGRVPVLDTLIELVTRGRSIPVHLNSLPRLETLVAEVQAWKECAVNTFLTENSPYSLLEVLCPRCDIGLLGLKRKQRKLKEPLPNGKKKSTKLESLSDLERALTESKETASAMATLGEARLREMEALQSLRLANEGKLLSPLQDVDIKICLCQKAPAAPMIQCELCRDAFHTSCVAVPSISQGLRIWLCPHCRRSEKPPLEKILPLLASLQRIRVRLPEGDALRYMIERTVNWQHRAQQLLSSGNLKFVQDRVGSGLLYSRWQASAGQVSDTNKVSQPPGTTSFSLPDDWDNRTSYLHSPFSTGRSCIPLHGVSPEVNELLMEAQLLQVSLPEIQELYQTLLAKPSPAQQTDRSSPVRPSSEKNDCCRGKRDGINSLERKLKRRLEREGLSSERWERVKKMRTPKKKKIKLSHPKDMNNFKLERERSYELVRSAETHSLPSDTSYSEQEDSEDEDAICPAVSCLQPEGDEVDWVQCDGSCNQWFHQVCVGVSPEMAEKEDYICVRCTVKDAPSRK

[3] = standard demethylase conditions (10 μM α-KG, 50 μM Fe (II))
[4] = IDs marked *: additional hits under reaction condition with 1 mM α-KG

What does the source list for `O=C(O)c1cc(NCc2cc(O)ccc2O)ccc1O` [YU154859, 2-HYDROXY-5-(2,5- DIHYDROXYBENZYL- AMINO)BENZOIC ACID, reference compound]?
Artifact Signal (percent) [1]: 3.65%; Assay − Artifact Signal (percent) [2]: 42.61%; inhibition at 20 µM [2, 3]: 46.4%; Assay Signal (percent) [2]: 46.26%

What does the source list for `COc1ccc(Cl)cc1NC(=S)Nn1cnnc1` [YU148611]?
Artifact Signal (percent) [1]: −2.20%; Assay − Artifact Signal (percent) [2]: 17.82%; inhibition at 20 µM [2, 3]: 34.6%; Assay Signal (percent) [2]: 15.61%

With `CCn1c(S)nnc1-c1ccncc1` [YU144949] as the compound, how does the “Artifact Signal (percent)” value [1] read?
The value was −3.18%.

And the “Assay − Artifact Signal (percent)” value [2]?
The value was 43.88%.

What about the inhibition at 20 µM [2, 3] of the same compound?
Its inhibition at 20 µM is 38.8%.

What about the “Assay Signal (percent)” value [2] of the same compound?
Its value is 40.70%.

What does the source list for `CCOc1cc(CN)cc(Cl)c1OCC.Cl` [YU147266]?
Artifact Signal (percent) [1]: 0.11%; Assay − Artifact Signal (percent) [2]: 69.10%; inhibition at 20 µM [2, 3]: 68.6%; Assay Signal (percent) [2]: 69.21%

For `CSc1nc2cc(F)c(F)cc2n1C` [YU145132], which “Artifact signal: effect of the compound when it is incubated with bio-H3K4me2 peptide” value (“Artifact signal: effect of the compound” for short) [1] is on record?
Its value is −7.06.

What about the inhibition at 20 µM [2, 3] of the same compound?
Its inhibition at 20 µM is 91.5%.

And the “Validation result of HTS active: effect of the compound in the JARID1B AlphaScreen demethylase assay” value (shortened to “Validation result of HTS active”) [2]?
Its value is −6.93.

With `COc1cc(C=O)cc(Cl)c1OCc1cccc([N+](=O)[O-])c1` [YU152587] as the compound, how does the “Artifact signal: effect of the compound” value [1] read?
Its value is −2.67.

And the inhibition at 20 µM [2, 3]?
Its inhibition at 20 µM is 98.2%.

What about the “Validation result of HTS active” value [2] of the same compound?
The value was −1.32.

Which “Artifact Signal (percent)” value [1] does the source give for `Cc1c(C(=O)O)cccc1-c1ccc(C=C[N+](=O)[O-])o1` (single isomer, unassigned) [YU147801] here?
Its value is 16.98%.

And the “Assay − Artifact Signal (percent)” value [2]?
The value was 14.43%.

What about the inhibition at 20 µM [2, 3] of the same compound?
The inhibition at 20 µM was 56.9%.

And the “Assay Signal (percent)” value [2]?
The value was 31.41%.

What does the source list for `Cc1cccc(-n2c(=O)c(O)nc3cc([N+](=O)[O-])ccc32)c1` [YU149941]?
Artifact signal: effect of the compound when it is incubated with bio-H3K4me2 peptide [1]: −16.01; inhibition at 20 µM [2, 3]: 51.1%; Validation result of HTS active: effect of the compound in the JARID1B AlphaScreen demethylase assay [2]: −12.32

What does the source list for `Oc1c(Cl)cc(Cl)cc1Sc1cc(Cl)cc(Cl)c1O` [YU033712, BITHIONOL, reference compound]?
Artifact signal: effect of the compound when it is incubated with bio-H3K4me2 peptide [1]: −3.70; inhibition at 20 µM [2, 4]: 47.6%; Validation result of HTS active: effect of the compound in the JARID1B AlphaScreen demethylase assay [2]: 0.82

With `Cn1c(SCC=Cc2ccccc2)nnc1-c1cnccn1` (single isomer, unassigned) [YU151184] as the compound, how does the “Artifact signal: effect of the compound” value [1] read?
The value was −5.59.

What about the inhibition at 20 µM [2, 3] of the same compound?
The inhibition at 20 µM was 33.8%.

And the “Validation result of HTS active” value [2]?
Its value is 1.02.

With `C[n+]1cc2c3c(ccc2c2ccc4cc5c(cc4c21)OCO5)OCO3` [YU033662, SANGUINARINE SULFATE, reference compound] as the compound, how does the “Artifact Signal (percent)” value [1] read?
Its value is 9.21%.

What about the “Assay − Artifact Signal (percent)” value [2] of the same compound?
The value was 58.64%.

And the “Inhibitory effect (percent)” value [2, 3]?
The value was 86.66%.

What about the “Assay Signal (percent)” value [2] of the same compound?
Its value is 67.85%.

With “BACITRACIN [YU033699, reference compound]” as the compound, how does the “Artifact signal: effect of the compound” value [1] read?
The value was −1.65.

And the “Inhibitory effect (percent)” value [2, 3]?
The value was 74.07%.

What about the “Validation result of HTS active” value [2] of the same compound?
The value was 6.01.

For `Cc1ccc(NC(=O)C2OCCc3ccccc32)cc1Cl` (stereo not shown) [YU150403], which “Artifact signal: effect of the compound” value [1] is on record?
The value was −6.36.

What about the inhibition at 20 µM [2, 3] of the same compound?
The inhibition at 20 µM was 97.5%.

And the “Validation result of HTS active” value [2]?
The value was −3.10.

What does the source list for `O=c1c(O)c(-c2ccc(O)c(O)c2)oc2cc(O)ccc12` [YU155255, FISETIN, reference compound]?
Artifact Signal (percent) [1]: 68.78%; Assay − Artifact Signal (percent) [2]: 22.49%; inhibition at 20 µM [2, 3]: 45.8%; Assay Signal (percent) [2]: 91.26%

What does the source list for `N.N.[Cl][Pt][Cl]` [YU034538, CISPLATIN, reference compound]?
Artifact Signal (percent) [1]: 8.53%; Assay − Artifact Signal (percent) [2]: 40.64%; Inhibitory effect (percent) [2, 3]: 40.06%; Assay Signal (percent) [2]: 49.17%

Which “Artifact signal: effect of the compound” value [1] does the source give for `O=C(O)c1cc2cc(Cc3ccccc3Cl)ccc2oc1=O` [YU151859] here?
Its value is 5.15.

And the inhibition at 20 µM [2, 3]?
The inhibition at 20 µM was 84.4%.

What about the “Validation result of HTS active” value [2] of the same compound?
The value was 9.33.

With `Cc1ccccc1C(=O)NCc1nnc(S)n1C` [YU147024] as the compound, how does the “Artifact Signal (percent)” value [1] read?
Its value is −5.84%.

What about the “Assay − Artifact Signal (percent)” value [2] of the same compound?
The value was 35.27%.

What about the inhibition at 20 µM [2, 3] of the same compound?
The inhibition at 20 µM was 31.6%.

What about the “Assay Signal (percent)” value [2] of the same compound?
Its value is 29.44%.

What does the source list for `O=C(Oc1cc(O)cc2c1C[C@@H](OC(=O)c1cc(O)c(O)c(O)c1)[C@@H](c1cc(O)c(O)c(O)c1)O2)c1cc(O)c(O)c(O)c1` [YU155091, EPIGALLOCATECHIN 3,5-DIGALLATE, reference compound]?
Artifact signal: effect of the compound when it is incubated with bio-H3K4me2 peptide [1]: −3.13; inhibition at 20 µM [2, 3]: 92.2%; Validation result of HTS active: effect of the compound in the JARID1B AlphaScreen demethylase assay [2]: −0.05

Which results are given for `C#CCCCCCCCCCCCC(O)CC(O)COC(C)=O` (stereo not shown) [YU155369, AVOCADYNE ACETATE, reference compound]?
Artifact Signal (percent) [1]: −0.21%; Assay − Artifact Signal (percent) [2]: 45.03%; inhibition at 20 µM [2, 3]: 45.1%; Assay Signal (percent) [2]: 44.82%

Which “Artifact Signal (percent)” value [1] does the source give for `CC(=O)C(C)O[Si](C(C)C)(C(C)C)C(C)C` (stereo not shown) [YU035082] here?
Its value is 6.78%.

What about the “Assay − Artifact Signal (percent)” value [2] of the same compound?
Its value is 15.58%.

What about the inhibition at 20 µM [2, 4] of the same compound?
Its inhibition at 20 µM is 95.8%.

What about the “Assay Signal (percent)” value [2] of the same compound?
Its value is 22.36%.

Which “Artifact Signal (percent)” value [1] does the source give for `N#CC(=Cc1ccncc1)c1nc2ccccc2s1` [YU147088] here?
The value was 0.34%.

What about the “Assay − Artifact Signal (percent)” value [2] of the same compound?
Its value is 45.66%.

What about the inhibition at 20 µM [2, 3] of the same compound?
Its inhibition at 20 µM is 39.8%.

What about the “Assay Signal (percent)” value [2] of the same compound?
The value was 46.00%.

Which “Artifact Signal (percent)” value [1] does the source give for `COc1ccc(-c2coc3cc(O)ccc3c2=O)c(O)c1O` [YU155016, KOPARIN, reference compound] here?
Its value is 14.33%.

And the “Assay − Artifact Signal (percent)” value [2]?
The value was 13.76%.

And the inhibition at 20 µM [2, 4]?
The inhibition at 20 µM was 42.3%.

And the “Assay Signal (percent)” value [2]?
Its value is 28.09%.

For `Fc1cccc(-c2nn3c(-c4ccccc4Cl)nnc3s2)c1` [YU153729], which “Artifact Signal (percent)” value [1] is on record?
The value was −3.54%.

What about the “Assay − Artifact Signal (percent)” value [2] of the same compound?
Its value is 14.96%.

And the inhibition at 20 µM [2, 3]?
Its inhibition at 20 µM is 33.9%.

What about the “Assay Signal (percent)” value [2] of the same compound?
Its value is 11.41%.

With `CCSc1nnc(-c2cc(OC)cc(OC)c2)o1` [YU147278] as the compound, how does the “Artifact Signal (percent)” value [1] read?
The value was −5.71%.

And the “Assay − Artifact Signal (percent)” value [2]?
Its value is 15.14%.

What about the inhibition at 20 µM [2, 3] of the same compound?
Its inhibition at 20 µM is 32.8%.

And the “Assay Signal (percent)” value [2]?
Its value is 9.43%.

For `Cc1cc(C)nc(Nc2ccc(N(C)C)cc2)n1` [YU146020], which “Artifact Signal (percent)” value [1] is on record?
Its value is 3.15%.

What about the “Assay − Artifact Signal (percent)” value [2] of the same compound?
Its value is 8.99%.

What about the inhibition at 20 µM [2, 3] of the same compound?
Its inhibition at 20 µM is 30.9%.

And the “Assay Signal (percent)” value [2]?
Its value is 12.15%.
